Results from patent US4508704A, “Radioactive metals complexed with phosphonate derivatives of bicycloheptane bis(alkylamines)” (The Dow Chemical Company, priority 1984, dated 1985).

Experiments:
[1] = cited from earlier work
[2] = Biodistribution in several tissues in rats, NaI scintillation counter; format: in vivo; conditions: 2 hours, ~1 mCi, tail vein
Protocol: The Tc-complex of Example 1 (50 μl, ~1 mCi) was injected into the tail vein of a series of rats. The animals were killed after 2 hours and the radiation from several tissues was quantitated using a NaI scintillation counter.

[3] = Biodistribution in several tissues in rabbits, NaI scintillation counter; format: in vivo; conditions: 3 hours after injection, ear vein
Protocol: The complex of Example 1 was injected in the ear vein of a series of rabbits. The rabbits were killed 3 hours after injection. The radiation of several tissues was quantified by counting using a NaI scintillation counter.

Compound | accumulation by bone ([1]; after intravenous administration) | biological half life ([1]; in vivo) | Percent Dose/Organ, Blood [2] | Percent Dose/Organ, Skeleton [2] | Percent Dose/Organ, Urine [2] | Ratio Bone/blood [2] | Ratio Bone/muscle [2] | Ratio Femur/blood [3] | Ratio Femur/muscle [3] | radiation in Blood [3] | radiation in Femur [3] | radiation in Liver [3] | radiation in Muscle [3]
[85Sr] [Sr-85, Strontium-85] | rapidly accumulated by bone | ~ 800 days |  |  |  |  |  |  |  |  |  |  | 
methylenediphosphonate [Tc-MDP] |  |  | 0.27 Percent Dose/Organ | 39.4 Percent Dose/Organ | 50.9 Percent Dose/Organ | 146 | 150 | 44 | 114 | 0.13 | 5.7 | 0.11 | 0.05
